Reference: PubChem BioAssay AID248 (DTP/NCI, 2004)
Values joined by “and” are separate entries in the source; they are usually repeats but may differ in a detail not shown here. Equal entries are not always repeated. Inconclusive results and toxic doses are left out.

Test system: L1210 leukemia ip in BDF1 mice, survival T/C
Experiment: NCI In Vivo Anticancer Drug Screen. Data for tumor model L1210 Leukemia (intraperitoneal) in B6D2F1 (BDF1) mice
Settings: endpoint: mean survival time, higher = longer survival
Method in brief: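 Survival endpoint. Drug-treated group vs vehicle group, expressed as T divided by C. Tumor passaged by transplantation.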

[1] = dose: 200.0 mg/kg/injection, schedule: Q01DX009 (ip), vehicle: saline with Tween-80
[2] = dose: 25.0 mg/kg/injection, schedule: Q04DX003 (ip), vehicle: Klucel (hydroxypropylcellulose) (HPC)
[3] = dose: 100.0 mg/kg/injection, schedule: Q01DX009 (ip), vehicle: Klucel (hydroxypropylcellulose) (HPC)
[4] = dose: 100.0 mg/kg/injection, schedule: Q04DX003 (ip), vehicle: Klucel (hydroxypropylcellulose) (HPC)
[5] = dose: 200.0 mg/kg/injection, schedule: Q01DX009 (ip), vehicle: Klucel (hydroxypropylcellulose) (HPC)
[6] = dose: 100.0 mg/kg/injection, schedule: Q04DX002 (ip), vehicle: Klucel (hydroxypropylcellulose) (HPC)
[7] = dose: 200.0 mg/kg/injection, schedule: Q04DX002 (ip), vehicle: Klucel (hydroxypropylcellulose) (HPC)
[8] = dose: 400.0 mg/kg/injection, schedule: Q04DX002 (ip), vehicle: Klucel (hydroxypropylcellulose) (HPC)
[9] = dose: 100.0 mg/kg/injection, schedule: Q04DX003 (ip), vehicle: saline with Tween-80
[10] = dose: 200.0 mg/kg/injection, schedule: Q04DX003 (ip), vehicle: saline with Tween-80
[11] = dose: 75.0 mg/kg/injection, schedule: Q01DX001 (ip), vehicle: saline
[12] = dose: 100.0 mg/kg/injection, schedule: Q01DX001 (ip), vehicle: saline
[13] = dose: 200.0 mg/kg/injection, schedule: Q01DX001 (ip), vehicle: saline
[14] = dose: 400.0 mg/kg/injection, schedule: Q01DX001 (ip), vehicle: saline
[15] = dose: 50.0 mg/kg/injection, schedule: Q01DX009 (ip), vehicle: saline with Tween-80
[16] = dose: 100.0 mg/kg/injection, schedule: Q01DX009 (ip), vehicle: saline with Tween-80

For `S=c1c2ccccc2nc2n1CCS2`, the T/C [1] was 92 % of control and the T/C (dose: 400.0 mg/kg/injection, schedule: Q01DX009 (ip), vehicle: saline with Tween-80) was 87 % of control.
With `C/C(=N/N=C(N)N)c1cccnc1` the T/C (dose: 15.0 mg/kg/injection, schedule: Q01DX Z (ip), vehicle: saline) was 106 % of control, the T/C (dose: 30.0 mg/kg/injection, schedule: Q01DX Z (ip), vehicle: saline) was 106 % of control and the T/C (dose: 60.0 mg/kg/injection, schedule: Q01DX Z (ip), vehicle: saline) was 108 % of control. For the same compound, the T/C (dose: 120.0 mg/kg/injection, schedule: Q01DX Z (ip), vehicle: saline) was 93 % of control.
For `CCOC(=O)C(C)CC(C)(C(=O)OCC)C(=O)OCC` (configuration not stated), the T/C [2] was 98 % of control, the T/C (dose: 50.0 mg/kg/injection, schedule: Q01DX009 (ip), vehicle: Klucel (hydroxypropylcellulose) (HPC)) was 93 % of control and the T/C (dose: 50.0 mg/kg/injection, schedule: Q04DX003 (ip), vehicle: Klucel (hydroxypropylcellulose) (HPC)) was 103 % of control. The T/C [3] was 104 % of control, the T/C [4] was 98 % of control and 103 % of control and the T/C [5] was 100 % of control.
In the case of `CC(=O)CC1CCC(CC(C)=O)CC1` (configuration not stated), the T/C (dose: 100.0 mg/kg/injection, schedule: Q04DX002 (ip), vehicle: other) is reported as 98 % of control, the T/C (dose: 200.0 mg/kg/injection, schedule: Q04DX002 (ip), vehicle: other) is reported as 90 % of control and the T/C (dose: 400.0 mg/kg/injection, schedule: Q04DX002 (ip), vehicle: other) is reported as 98 % of control.
`Cc1ccnc(NC(=O)CCc2ccccc2)c1` was tested, and the T/C [6] was 95 % of control, the T/C [7] was 100 % of control and the T/C [8] was 92 % of control.
In the case of `CCC1=C(c2cc(Cl)c3ccccc3c2OCC(=O)O)OC(CC)(C(=O)c2cc(Cl)c3ccccc3c2OCC(=O)O)CC1` (configuration not stated), the T/C (dose: 30.0 mg/kg/injection, schedule: Q01DX009 (ip), vehicle: saline with Tween-80) is reported as 96 % of control, the T/C (dose: 31.0 mg/kg/injection, schedule: Q01DX Z (ip), vehicle: other) is reported as 92 % of control and the T/C (dose: 60.0 mg/kg/injection, schedule: Q01DX009 (ip), vehicle: saline with Tween-80) is reported as 94 % of control. The T/C (dose: 62.0 mg/kg/injection, schedule: Q01DX Z (ip), vehicle: other) was 95 % of control, the T/C [9] was 103 % of control and the T/C (dose: 120.0 mg/kg/injection, schedule: Q01DX009 (ip), vehicle: saline with Tween-80) was 92 % of control. The T/C [10] was 93 % of control and the T/C (dose: 240.0 mg/kg/injection, schedule: Q01DX009 (ip), vehicle: saline with Tween-80) was 92 % of control.
`Cc1nnc(NS(=O)(=O)c2ccc(N=Nc3c(N)nc(N)[nH]c3=O)cc2)s1` was tested, and the T/C (dose: 5.0 mg/kg/injection, schedule: Q01DX001 (ip), vehicle: saline) was 105 % of control, the T/C (dose: 10.0 mg/kg/injection, schedule: Q01DX001 (ip), vehicle: saline) was 102 % of control and the T/C (dose: 20.0 mg/kg/injection, schedule: Q01DX001 (ip), vehicle: saline) was 98 % of control. The T/C (dose: 40.0 mg/kg/injection, schedule: Q01DX001 (ip), vehicle: saline) was 102 % of control.
For `CC12CCC(C1)C(C)(C)C2[N+]#N` (configuration not stated), the T/C [11] was 105 % of control.
`Br[C](Br)(Br)[Hg][c]1ccccc1` was tested, and the T/C (dose: 6.0 mg/kg/injection, schedule: Q01DX009 (ip), vehicle: Klucel (hydroxypropylcellulose) (HPC)) was 98 % of control, the T/C (dose: 12.5 mg/kg/injection, schedule: Q01DX009 (ip), vehicle: Klucel (hydroxypropylcellulose) (HPC)) was 93 % of control and the T/C (dose: 12.5 mg/kg/injection, schedule: Q04DX003 (ip), vehicle: Klucel (hydroxypropylcellulose) (HPC)) was 110 % of control. The T/C (dose: 25.0 mg/kg/injection, schedule: Q01DX009 (ip), vehicle: Klucel (hydroxypropylcellulose) (HPC)) was 87 % of control and the T/C [2] was 95 % of control.
With `CCOc1ccccc1NC(=S)NC(=O)c1ccc(OC)cc1` the T/C [3] was 104 % of control, the T/C [4] was 109 % of control and the T/C [5] was 93 % of control. The T/C (dose: 200.0 mg/kg/injection, schedule: Q04DX003 (ip), vehicle: Klucel (hydroxypropylcellulose) (HPC)) was 102 % of control, the T/C (dose: 400.0 mg/kg/injection, schedule: Q01DX009 (ip), vehicle: Klucel (hydroxypropylcellulose) (HPC)) was 93 % of control and the T/C (dose: 400.0 mg/kg/injection, schedule: Q04DX003 (ip), vehicle: Klucel (hydroxypropylcellulose) (HPC)) was 100 % of control.
For `O=C(CC(O)c1ccccc1)Nc1ccccn1` (configuration not stated), the T/C [12] was 98 % of control, the T/C [13] was 102 % of control and the T/C [14] was 93 % of control.
In the case of `CC(=O)Nc1ncc([N+](=O)[O-])s1`, the T/C [15] is reported as 97 % of control, the T/C [16] is reported as 98 % of control and the T/C [1] is reported as 104 % of control.
In the case of `CCCN(C)N=Nc1ccccc1C(N)=O`, the T/C (dose: 44.0 mg/kg/injection, schedule: Q01DX009 (ip), vehicle: saline with Tween-80) is reported as 108 % of control, the T/C [15] is reported as 113 % of control and the T/C (dose: 50.0 mg/kg/injection, schedule: Q04DX003 (ip), vehicle: saline with Tween-80) is reported as 110 % of control. For the same compound, the T/C (dose: 66.0 mg/kg/injection, schedule: Q01DX009 (ip), vehicle: saline with Tween-80) was 108 % of control, the T/C (dose: 100.0 mg/kg/injection, schedule: Q01DX001 (ip), vehicle: other) was 109 % of control and the T/C [9] was 111 % of control. For the same compound, the T/C (dose: 150.0 mg/kg/injection, schedule: Q01DX009 (ip), vehicle: saline with Tween-80) was 153 % of control, the T/C (dose: 200.0 mg/kg/injection, schedule: Q01DX001 (ip), vehicle: other) was 113 % of control and the T/C [1] was 120 % of control. The T/C [10] was 118 % of control.
With `O=[N+]([O-])c1ccccc1N1N=NC2CC/C(=C\c3ccc(Cl)cc3)C21N1CCOCC1` (configuration not stated) the T/C (dose: 100.0 mg/kg/injection, schedule: Q04DX002 (ip), vehicle: saline) was 108 % of control, the T/C (dose: 200.0 mg/kg/injection, schedule: Q04DX002 (ip), vehicle: saline) was 89 % of control and the T/C (dose: 400.0 mg/kg/injection, schedule: Q04DX002 (ip), vehicle: saline) was 92 % of control.
`O=C1c2ccccc2C(=O)N1CCl` was tested, and the T/C (dose: 100.0 mg/kg/injection, schedule: Q01DX001 (ip), vehicle: Klucel (hydroxypropylcellulose) (HPC)) was 93 % of control, the T/C (dose: 200.0 mg/kg/injection, schedule: Q01DX001 (ip), vehicle: Klucel (hydroxypropylcellulose) (HPC)) was 104 % of control and the T/C (dose: 400.0 mg/kg/injection, schedule: Q01DX001 (ip), vehicle: Klucel (hydroxypropylcellulose) (HPC)) was 114 % of control.
In the case of `O=C1c2ccccc2C(=O)c2c(NC(=O)C(Cl)CCl)cccc21` (configuration not stated), the T/C [11] is reported as 94 % of control, the T/C (dose: 150.0 mg/kg/injection, schedule: Q01DX001 (ip), vehicle: saline) is reported as 90 % of control and 92 % of control and the T/C (dose: 300.0 mg/kg/injection, schedule: Q01DX001 (ip), vehicle: saline) is reported as 97 % of control.
With `COC(=O)c1c(C(=O)c2ccccc2)nn2c(-c3ccccc3)c(-c3ccccc3)c(-c3ccccc3)c(-c3ccccc3)c12` the T/C [13] was 86 % of control and the T/C [14] was 93 % of control.
In the case of `CN(C)c1ccc(CC2CCOC2=O)cc1` (configuration not stated), the T/C (dose: 50.0 mg/kg/injection, schedule: Q01DX001 (ip), vehicle: carboxymethylcellulose (CMC)) is reported as 102 % of control, the T/C (dose: 100.0 mg/kg/injection, schedule: Q01DX001 (ip), vehicle: carboxymethylcellulose (CMC)) is reported as 96 % of control and the T/C (dose: 200.0 mg/kg/injection, schedule: Q01DX001 (ip), vehicle: carboxymethylcellulose (CMC)) is reported as 96 % of control. The T/C (dose: 400.0 mg/kg/injection, schedule: Q01DX001 (ip), vehicle: carboxymethylcellulose (CMC)) was 100 % of control.
For `Nc1ccccc1C(=O)N/N=C/c1cccc(O)c1`, the T/C [6] was 98 % of control, the T/C [7] was 103 % of control and the T/C [8] was 113 % of control.
`C/C(=C/c1ccccc1)S(=O)(=O)c1ccccc1` was tested, and the T/C [12] was 105 % of control, the T/C (dose: 100.0 mg/kg/injection, schedule: Q01DX009 (ip), vehicle: saline) was 91 % of control and the T/C [13] was 100 % of control. The T/C (dose: 200.0 mg/kg/injection, schedule: Q01DX009 (ip), vehicle: saline) was 94 % of control, the T/C [14] was 105 % of control and the T/C (dose: 400.0 mg/kg/injection, schedule: Q01DX009 (ip), vehicle: saline) was 93 % of control.
`CCOc1ccc(NC(=O)NCCBr)cc1` was tested, and the T/C [15] was 94 % of control and the T/C [16] was 94 % of control.
With `[Si]C1CCCCC1` the T/C (dose: 100.0 mg/kg/injection, schedule: Q01DX001 (ip), vehicle: saline with Tween-80) was 96 % of control, the T/C (dose: 200.0 mg/kg/injection, schedule: Q01DX001 (ip), vehicle: saline with Tween-80) was 89 % of control and the T/C (dose: 400.0 mg/kg/injection, schedule: Q01DX001 (ip), vehicle: saline with Tween-80) was 96 % of control.
